According to PMC5467912, “Asymmetric regulation of quorum-sensing receptors drives autoinducer-specific gene expression programs in Vibrio cholerae” (PLoS Genetics, 2017):
Values joined by “and” are separate entries in the source; they are usually repeats but may differ in a detail not shown here. Identical values can stand only once. Like-named read-outs stand apart in the source and are kept apart here.

Assays:
CqsS F166L = assay: CqsS-dependent repression of qrr4-gfp, CqsS F166L (Fig 7C); assay type: cell-based, Vibrio cholerae; conditions: Treatment 1uM; CqsS mutant F166L
CqsS F162A = assay: CqsS-dependent repression of qrr4-gfp, CqsS F162A (Fig 7C); assay type: cell-based, Vibrio cholerae; conditions: Treatment 1uM; CqsS mutant F162A
CqsS C170Y = assay: CqsS-dependent repression of qrr4-gfp, CqsS C170Y (Fig 7C); assay type: cell-based, Vibrio cholerae; conditions: Treatment 1uM; CqsS mutant C170Y
CqsS D618N = tested on: T1, CqsS D618N; assay: CqsS D618N autophosphorylation in inverted membrane vesicles, 32P (Fig 7A); assay type: biochemical, Vibrio cholerae
T1 construct: made in house; host or cells: E. coli C43 (DE3), pET21b; used as inverted membrane vesicles

WT CqsS [1] = tested on: T2, WT CqsS; assay type: cell-based; conditions: Treatment 1uM
T2 construct: made in house; host or cells: E. coli C43 (DE3), pET21b; used as inverted membrane vesicles

CqsS = target: T3, CqsS (Vibrio cholerae serotype O1, UniProt Q9KM66); assay: cell-based; conditions: for Light production: strain WN1102
T3 construct: endogenous in cells; host or cells: V. cholerae WN1102 (ΔcqsA ΔluxQ/pBB1), derived from C6706str2

WT CqsS [2] = tested on: T2, WT CqsS; assay type: biochemical; conditions: for % Total Phosphorylation: CqsS WT

SMILES: O=C(Cc1ccc(-c2ccccc2)cc1)NC1CCCC1 [#10]
- Qrr4-GFP/OD600 (CqsS F166L): 1551288 and 1596042 and 1572105
- Qrr4-GFP/OD600 (CqsS F162A): 18605320 and 18513840 and 18292630
- Qrr4-GFP/OD600 (CqsS C170Y): 18211540 and 17807950 and 19517480
- % Total Phosphorylation (CqsS D618N; agonist 0.32 uM): 78.2169% and 129.787% and 72.1832% and 83.4166% and 68.7823%
- % Total Phosphorylation (CqsS D618N; agonist 0.64 uM): 67.6455% and 78.826% and 54.4942% and 82.803% and 54.4178% and 76.2235%
- % Total Phosphorylation (CqsS D618N; agonist 5.12 uM): 12.1256% and 15.8552% and 14.0183% and 14.8493% and 9.564% and 18.5457%
- % Total Phosphorylation (CqsS D618N; agonist 6.4 uM): 8.254% and 10.2835% and 8.308% and 5.772% and 5.105% and 9.008%
- % Total Phosphorylation (CqsS D618N; agonist 8 uM): 7.787% and 6.051% and 9.483% and 6.182% and 5.718% and 6.335%
- Qrr4-GFP/OD600 (WT CqsS [1]): 1697194 and 1657949 and 1642162
- Light production (CqsS; Agonist 0.0119209 nM): 9369.4 RLU and 6986.9 RLU and 10942 RLU
- Light production (CqsS; Agonist 0.0476837 nM): 9423.1 RLU and 8000 RLU and 9340.1 RLU
- Light production (CqsS; Agonist 0.190735 nM): 12692 RLU and 13456 RLU and 11192 RLU
- Light production (CqsS; Agonist 0.762939 nM): 11313 RLU and 14104 RLU and 15238 RLU
- Light production (CqsS; Agonist 3.05176 nM): 22600 RLU and 24142 RLU and 30238 RLU
- Light production (CqsS; Agonist 12.207 nM): 47534 RLU and 48144 RLU and 43294 RLU
- Light production (CqsS; Agonist 48.8281 nM): 434632 RLU and 280649 RLU and 290930 RLU
- Light production (CqsS; Agonist 195.312 nM): 18756970 RLU and 17581320 RLU and 17098310 RLU
- Light production (CqsS; Agonist 781.25 nM): 54801790 RLU and 56977330 RLU and 58542960 RLU
- Light production (CqsS; Agonist 3125 nM): 59104040 RLU and 65075830 RLU and 69081300 RLU
- Light production (CqsS; Agonist 12500 nM): 60176380 RLU and 64830980 RLU and 65866960 RLU
- Light production (CqsS; Agonist 50000 nM): 60204070 RLU and 58034020 RLU and 58318400 RLU
- EC50 (CqsS; light production, reporter strain WN1102, 4 h at 30 °C): 62 nM
- % Total Phosphorylation (WT CqsS [2]; Agonist 0.1 uM): 86.7558%
- % Total Phosphorylation (WT CqsS [2]; Agonist 0.5 uM): 84.62% and 81.5912%
- % Total Phosphorylation (WT CqsS [2]; Agonist 1 uM): 70.72%
- % Total Phosphorylation (WT CqsS [2]; Agonist 5 uM): 11.17% and 6.892%
- % Total Phosphorylation (WT CqsS [2]; Agonist 10 uM): 7.64% and 4.71%
- % Total Phosphorylation (WT CqsS [2]; Agonist 20 uM): 4.64% and 6.727%
- % Total Phosphorylation (WT CqsS [2]; Agonist 30 uM): 7.41% and 4.674%
- % Total Phosphorylation (WT CqsS [2]; Agonist 100 uM): 7.94% and 6.455%
- % Total Phosphorylation (WT CqsS [2]; Agonist 200 uM): 9.2% and 11.8727%
- inhibition of WT CqsS autophosphorylation (WT CqsS [2]; saturating concentration (Fig 7B)): 90%
